In PMC12396409, “Screening and hit evaluation of a microbial metabolite library against the pathogenic Plasmodium falciparum and Toxoplasma gondii parasites” (International Journal for Parasitology: Drugs and Drug …, 2025):
Where a name gives a salt, the structure may show the parent alone. Read-outs that look alike come from different tables or passages of the source.

Legend:
[1] = system: P. falciparum 3D7 parasites; test: P. falciparum growth inhibition assay, 1-cycle (72 h treatment), SYBR DNA staining (library screen at 2 μg/mL and dose-response); format: cell-based, Plasmodium falciparum
[2] = system: P. falciparum 3D7 parasites; test: P. falciparum growth inhibition assay, 2-cycle (120 h treatment), delayed-death screen and dose-response; format: cell-based, Plasmodium falciparum
[3] = system: T. gondii RH strain (RH-Tub-eYFP) tachyzoites; test: microbe, parasite or virus in culture; format: cell-based, Toxoplasma gondii; conditions: for percent parasite growth at 2 µg/mL: Toxoplasma gondii
[4] = Plasmodium falciparum, 3D7, library screen at 2 μg/mL, 72 h, % growth, replicate 1, read-out: Pf_72h_%Growth_Rep1
[5] = Plasmodium falciparum, 3D7, library screen at 2 μg/mL, 72 h, % growth, replicate 2, read-out: Pf_72h_%Growth_Rep2
[6] = Plasmodium falciparum, 3D7, library screen at 2 μg/mL, 120 h, % growth, replicate 1, read-out: Pf_120h_%Growth_Rep1
[7] = Plasmodium falciparum, 3D7, library screen at 2 μg/mL, 120 h, % growth, replicate 2, read-out: Pf_120h_%Growth_Rep2
[8] = library screen at 2 μg/mL, 72 h, % growth, replicate 1
[9] = library screen at 2 μg/mL, 72 h, % growth, replicate 2
[10] = library screen at 2 μg/mL, 120 h, % growth, replicate 1
[11] = library screen at 2 μg/mL, 120 h, % growth, replicate 2

Row | Structure (SMILES) | Pf_72h_%Growth_Rep1 [1, 8] [%] | Pf_72h_%Growth_Rep2 [1, 9] [%] | Pf_120h_%Growth_Rep1 [2, 10] [%] | Pf_120h_%Growth_Rep2 [2, 11] [%] | Tg_72h_%Growth_Rep1 [3, 8] [%] | Tg_72h_%Growth_Rep2 [3, 9] [%] | further results
1 | CN(C)[C@H]1C(O)=C(C(N)=O)C(=O)[C@@]2(O)C(O)=C3C(=O)c4c(O)cccc4[C@@](C)(O)[C@H]3C[C@@H]12 [Epitetracycline hydrochloride] | – | – | – | – | – | – | activity at 2 µg/mL ([1]; Plasmodium falciparum, 3D7; P. falciparum, 2 μg/mL, 72 h; read-out: 1) Growth (%) at 72 h): 57.7%; activity at 2 µg/mL [1, 4]: 65.2%; activity at 2 µg/mL [1, 5]: 50.1%; 3) Fold change (72 h/120 h) [2]: 3.9; activity at 2 µg/mL ([2]; Plasmodium falciparum, 3D7; P. falciparum, 2 μg/mL, 120 h; read-out: 2) Growth (%) at 120 h): 14.7%; activity at 2 µg/mL [2, 6]: 18%; activity at 2 µg/mL [2, 7]: 11.5%; percent parasite growth at 2 µg/mL ([3]; 72 h, read-out: Tg_72h_%Growth_Rep1): 125%; percent parasite growth at 2 µg/mL ([3]; 72 h, read-out: Tg_72h_%Growth_Rep2): 100%
2 | C/C(=C\c1csc(C)n1)[C@@H]1C[C@@H]2O[C@@H]2CCC[C@H](C)[C@H](O)[C@@H](C)C(=O)C(C)(C)[C@@H](O)CC(=O)O1 [Epothilone A] | – | – | – | – | – | – | activity at 2 µg/mL ([1]; Plasmodium falciparum, 3D7, 72 h, library screen at 2 μg/mL, 72 h, % growth, replicate 1, read-out: Pf_72h_%Growth_Rep1): 5.34%; activity at 2 µg/mL ([1]; Plasmodium falciparum, 3D7, 72 h, library screen at 2 μg/mL, 72 h, % growth, replicate 2, read-out: Pf_72h_%Growth_Rep2): 6.86%; activity at 2 µg/mL ([2]; Plasmodium falciparum, 3D7, 120 h, library screen at 2 μg/mL, 120 h, % growth, replicate 1, read-out: Pf_120h_%Growth_Rep1): -6.26%; activity at 2 µg/mL ([2]; Plasmodium falciparum, 3D7, 120 h, library screen at 2 μg/mL, 120 h, % growth, replicate 2, read-out: Pf_120h_%Growth_Rep2): 10.7%; percent parasite growth at 2 µg/mL ([3]; 72 h, library screen at 2 μg/mL, 72 h, % growth, replicate 1, read-out: Tg_72h_%Growth_Rep1): 2.49%; percent parasite growth at 2 µg/mL ([3]; 72 h, library screen at 2 μg/mL, 72 h, % growth, replicate 2, read-out: Tg_72h_%Growth_Rep2): 2.65%
3 | C/C(=C\c1csc(C)n1)[C@@H]1C[C@@H]2O[C@]2(C)CCC[C@H](C)[C@H](O)[C@@H](C)C(=O)C(C)(C)[C@@H](O)CC(=O)O1 [Epothilone B] | – | – | – | – | – | – | activity at 2 µg/mL [1, 4]: 31.4%; activity at 2 µg/mL [1, 5]: -0.31%; activity at 2 µg/mL [2, 6]: 5.18%; activity at 2 µg/mL [2, 7]: 3.63%; percent parasite growth at 2 µg/mL ([3]; library screen at 2 μg/mL, 72 h, % growth, replicate 1, read-out: Tg_72h_%Growth_Rep1): 5.99%; percent parasite growth at 2 µg/mL ([3]; library screen at 2 μg/mL, 72 h, % growth, replicate 2, read-out: Tg_72h_%Growth_Rep2): 3.71%
4 | CC(=O)O[C@@H]1[C@@H]2O[C@H]2[C@@](C)(O)C(=O)[C@@H](C)C/C=C\[C@H]2[C@H](O)C(C)=C(C)[C@H]3[C@H](Cc4ccccc4)NC(=O)[C@@]123 [Epoxycytochalasin C, 19,20-] | 3.41 | 4.96 | 4.88 | 15.35 | 1.38 | 1.44 | –
5 | C=C1[C@@H](C)[C@H]2[C@H](Cc3ccccc3)NC(=O)[C@]23[C@H](OC(C)=O)[C@@H]2O[C@H]2[C@@](C)(O)C(=O)[C@@H](C)C/C=C\[C@H]3[C@@H]1O [Epoxycytochalasin D, 19,20-] | 5.59 | 1.64 | 6.52 | -0.52 | 2.15 | 1.47 | –
6 | CC[C@H](C)[C@H]1O[C@]2(C=C[C@@H]1C)C[C@@H]1C[C@@H](C/C=C(\C)[C@@H](O[C@H]3C[C@H](OC)[C@@H](O[C@H]4C[C@H](OC)[C@H](NC(C)=O)[C@H](C)O4)[C@H](C)O3)[C@@H](C)/C=C/C=C3\CO[C@@H]4[C@H](O)C(C)=C[C@@H](C(=O)O1)[C@]34O)O2 [Eprinomectin B1a, reference compound] | 53.90 | 31.29 | 26.03 | 12.86 | 139.55 | 101.56 | 1) Growth (%) at 72 h ([1]; P. falciparum, 2 μg/mL, 72 h): 42.60%; 3) Fold change (72 h/120 h) [2]: 2.2; 2) Growth (%) at 120 h ([2]; P. falciparum, 2 μg/mL, 120 h): 19.45%
7 | CO[C@H]1C[C@H](O[C@H]2[C@H](C)O[C@@H](O[C@@H]3/C(C)=C/C[C@@H]4C[C@@H](C[C@]5(C=C[C@H](C)[C@@H](C(C)C)O5)O4)OC(=O)[C@@H]4C=C(C)[C@@H](O)[C@H]5OC/C(=C\C=C\[C@@H]3C)[C@]54O)C[C@@H]2OC)O[C@@H](C)[C@H]1NC(C)=O [Eprinomectin B1b] | – | – | – | – | – | – | Pf_72h_%Growth_Rep1 [1]: 56.32%; Pf_72h_%Growth_Rep2 [1]: 35.21%; Pf_120h_%Growth_Rep1 [2]: 33.01%; Pf_120h_%Growth_Rep2 [2]: 22.71%; Tg_72h_%Growth_Rep1 [3]: 157.07%; Tg_72h_%Growth_Rep2 [3]: 101.19%
8 | C/C=C/[C@@H]1C=C[C@@H]2C[C@H](C)CC[C@H]2[C@]1(C)/C(O)=C1/C(=O)[C@H](CO)N(C)C1=O [Equisetin] | 83.58 | 91.13 | 83.53 | 117.48 | 89.36 | 86.41 | –
9 | CC[C@H]1OC(=O)[C@H](C)[C@@H](O[C@H]2C[C@@](C)(OC)[C@@H](O)[C@H](C)O2)[C@H](C)[C@@H](O[C@@H]2O[C@H](C)C[C@H]([N+](C)(C)[O-])[C@H]2O)[C@](C)(O)C[C@@H](C)C(=O)[C@H](C)[C@@H](O)[C@]1(C)O [Erythromycin A N-oxide] | 82.02 | 85.53 | 82.07 | 80.30 | 107.95 | 98.15 | –
10 | CC[C@H]1OC(=O)[C@H](C)[C@@H](O[C@H]2C[C@@](C)(OC)[C@@H](O)[C@H](C)O2)[C@H](C)[C@@H](O[C@@H]2O[C@H](C)C[C@H](N(C)C)[C@H]2O)[C@@]2(C)CC(C)=C(O2)[C@H](C)[C@@H](O)[C@]1(C)O [Erythromycin A enol ether] | 65.76 | 86.36 | 47.90 | 73.68 | 90.78 | 86.46 | –
11 | CC[C@H]1OC(=O)[C@H](C)[C@@H](O[C@H]2C[C@@](C)(OC)[C@@H](O)[C@H](C)O2)[C@H](C)[C@@H](O[C@@H]2O[C@H](C)C[C@H](N(C)C)[C@H]2O)[C@](C)(O)C[C@@H](C)C(=NO)[C@H](C)[C@@H](O)[C@]1(C)O [Erythromycin A oxime] | 85.19 | 75.74 | 78.37 | 65.13 | 42.42 | 49.55 | –
12 | CC[C@H]1OC(=O)[C@H](C)[C@@H](O[C@H]2C[C@@](C)(OC)[C@@H](O)[C@H](C)O2)[C@H](C)[C@@H](O[C@@H]2O[C@H](C)C[C@H](N(C)C)[C@H]2O)[C@](C)(O)C[C@@H](C)C(=O)[C@H](C)[C@@H](O)[C@]1(C)O [Erythromycin A] | 79.99 | 105.49 | 83.81 | 89.66 | 29.44 | 44.08 | –
13 | CC[C@H]1OC(=O)[C@H](C)[C@@H](O[C@H]2C[C@@](C)(OC)[C@@H](O)[C@H](C)O2)[C@H](C)[C@@H](O[C@@H]2O[C@H](C)C[C@H](N(C)C)[C@H]2O)[C@](C)(O)C[C@@H](C)C(=O)[C@H](C)[C@@H](O)[C@H]1C [Erythromycin B] | 77.77 | 67.71 | 64.18 | 47.52 | 53.14 | 48.82 | –
14 | CC[C@H]1OC(=O)[C@H](C)[C@@H](O[C@H]2C[C@@](C)(O)[C@@H](O)[C@H](C)O2)[C@H](C)[C@@H](O[C@@H]2O[C@H](C)C[C@H](N(C)C)[C@H]2O)[C@](C)(O)C[C@@H](C)C(=O)[C@H](C)[C@@H](O)[C@]1(C)O [Erythromycin C] | 81.84 | 74.13 | 93.33 | 77.67 | 45.84 | 43.52 | –
15 | CCOC(=O)c1c(C)cc(O)cc1O [Ethyl orsellinate] | 90.89 | 117.50 | 96.78 | 106.42 | 128.38 | 103.54 | –
